The source of these data is US20100190706A1, “Stable Non-Aqueous Pharmaceutical Compositions” (NOVO NORDISK A/S, priority 2007, published 2010).

Read-outs that look alike come from different tables or passages of the source.

The conditions of data set [1]: cited from earlier work.
For data set [2] the following is noted: protic, very hydrophilic and polar solvents; lyophilized from aqueous solution of pH 6.0; cited from earlier work.
Data set [3] in a line: Isoelectric point (pI) of the insulinotropic peptide. In kind it is physicochemical.
Text: The pI of a protein can be determined experimentally by electrophoresis techniques such as electrofocusing:
A pH gradient is established in an anticonvective medium, such as a polyacrylamide gel. When a protein is introduced in to the system it will migrate under influence of an electric field applied across the gel. Positive charged proteins will migrate to the cathode. Eventually, the migrating protein reaches a point in the pH gradient where its net electrical charge is zero and is said to be focused. This is the isoelectric pH (pI) of the protein. The protein is then fixed on the gel and stained. The pI of the protein can then be determined by comparison of the position of the protein on the gel relative to marker molecules with known pI values.

As for `OCCCO` [1,3-propanediol], in data set [1] (293.2 Kelvin), the “Dielectricity constant, ε*” value is on record as 35.1.
As for `CCO` [Ethanol], the “Dielectricity constant, ε*” value in data set [1] (293.2 Kelvin) is reported as 25.3.
As for “lysozyme: lysozyme lyophilized from aqueous solution of pH 6.0 (Klibanov et al)”, in data set [2], the solubility result was “more than 10 mg/ml”.
With `O` [Water], in data set [1] (293.2 Kelvin), the “Dielectricity constant, ε*” value is recorded as 80.1.
As for `CO` [Methanol], the “Dielectricity constant, ε*” value in data set [1] (293.2 Kelvin) is listed as 33.0.
For `CC(C)O` [Isopropanol], the “Dielectricity constant, ε*” value in data set [1] (293.2 Kelvin) is given as 20.18.
Regarding `CC(O)CCO` (stereo not drawn) [1,3-butanediol], the “Dielectricity constant, ε*” value in data set [1] (293.2 Kelvin) is recorded as 28.8.
Regarding “Arg34, Lys26(N∈-(γ-Glu(Na-hexadecanoyl)))-GLP-1(7-37)”, in data set [3], the pI was 5.6.
Take `CC(O)CO` (stereo not drawn) [1,2-propanediol [propylene glycol], 1,2-propanediol]: the “Dielectricity constant, ε*” value in data set [1] (303.2 Kelvin) was 27.5.
